US20250188092A1, “RIFAMYCIN ANALOGS” (THE REGENTS OF THE UNIVERSITY OF MICHIGAN, priority 2021, published 2025)
Like-named read-outs stand apart in the source and are kept apart here.

Key:
[1] = test system: non-replicating cultures of M. tuberculosis H37Rv transformed with lux ABCDE; test: microbe, parasite or virus in culture; type: cell-based, Mycobacterium tuberculosis; conditions: for MIC / MIC90: ≥90% reduction in luminescence, read-out: MIC90 LORA; for MIC90 LORA/MABA: ratio of LORA MIC90 to MABA MIC90
[2] = test system: M. tuberculosis transformed with luxABCDE; test: microbe, parasite or virus in culture; type: cell-based, Mycobacterium tuberculosis; conditions: for MBC: ≥99% reduction in luminescence, read-out: MBC99 Day 7 (Lux Assay) MBC
[3] = Mycobacterium tuberculosis, H37RV
[4] = Mycobacterium tuberculosis, 168 h

**Q.** What does the source list for `CO[C@H]1/C=C/O[C@@]2(C)Oc3c(C)c(O)c4c(=O)c(c5oc6cc(N7CCS(=O)(=O)CC7)cc(OCc7ccc(CN8CCOCC8)cc7)c6nc-5c4c3C2=O)NC(=O)/C(C)=C\C=C\[C@H](C)[C@H](O)[C@@H](C)[C@@H](O)[C@@H](C)[C@H](OC(C)=O)[C@@H]1C` [Compound 17j, (7S,9E,11S,12R,13S,14R,15R,16R,17S,18S,19E,21Z)-30-(1,1-dioxothiomorpholin-4-yl)-2,15,17-trihydroxy-11-methoxy-3,7,12,14,16,18,22-heptamethyl-32-([4-(morpholin-4-ylmethyl)phenyl]methoxy)-6,23,37-trioxo-8,27,38-trioxa-24,34-diazahexacyclo-[23.11.1.1^4,7.0^5,36.0^26,35.0^28,33]octatriaconta-1,3,5(36)9,19,21,25,28,30,32,34-undecaen-13-yl acetate]?
**A.** MIC [1, 3]: > 0.02 µM; MBC [2, 4]: > 0.1 µM

**Q.** Which results are given for `CO[C@H]1/C=C/O[C@@]2(C)Oc3c(C)c(O)c4c(=O)c(c5oc6cc(N7CCC(C(=O)O)CC7)cc(OCc7ccc(CN8CCOCC8)cc7)c6nc-5c4c3C2=O)NC(=O)/C(C)=C\C=C\[C@H](C)[C@H](O)[C@@H](C)[C@@H](O)[C@@H](C)[C@H](OC(C)=O)[C@@H]1C` [Compound 17k]?
**A.** MIC [1, 3]: > 0.02 µM; MBC [2, 4]: > 0.1 µM

**Q.** For `CO[C@H]1/C=C/O[C@@]2(C)Oc3c(C)c(O)c4c(=O)c(c5oc6cc(N7CCN(C(=O)c8ccccc8)CC7)cc(OCc7ccc(CN8CCOCC8)cc7)c6nc-5c4c3C2=O)NC(=O)/C(C)=C\C=C\[C@H](C)[C@H](O)[C@@H](C)[C@@H](O)[C@@H](C)[C@H](OC(C)=O)[C@@H]1C` [Compound 17m, (7S,9E,11S,12R,13S,14R,15R,16R,17S,18S,19E,21Z)-30-(4-benzoylpiperazin-1-yl)-2,15,17-trihydroxy-1-methoxy-3,7,12,14,16,18,22-heptamethyl-32-{[4-(morpholin-4-ylmethyl)phenyl]methoxy}-6,23,37-trioxo-8,27,38-trioxa-24,34-diazahexacyclo-[23.11.1.1^4,7.0^5,36.0^26,35.0^28,33]octatriaconta-1,3,5(36)9,19,21,25,28,30,32,34-undecaen-13-yl acetate], which “MIC90 LORA Rel to RMP” value [1] is on record?
**A.** The value was 1.4.

**Q.** What about the MIC90 [1, 3] of the same compound?
**A.** The MIC90 was 0.072 µM.

**Q.** What about the “MIC90 LORA/MABA” value [1] of the same compound?
**A.** Its value is 4.2.

**Q.** And the “MBC99 Day 7 (Lux Assay) MBC Rel to RMP” value [2]?
**A.** The value was 0.48.

**Q.** And the MBC [2, 4]?
**A.** Its MBC is 0.217 µM.

**Q.** For `CO[C@H]1/C=C/O[C@@]2(C)Oc3c(C)c(O)c4c(=O)c(c5oc6cc(N7CCN(C(=O)c8ccncc8)CC7)cc(OCc7ccc(CN8CCOCC8)cc7)c6nc-5c4c3C2=O)NC(=O)/C(C)=C\C=C\[C@H](C)[C@H](O)[C@@H](C)[C@@H](O)[C@@H](C)[C@H](OC(C)=O)[C@@H]1C` [Compound 17n, 7S,9E,11S,12R,13S,14R,15R,16R,17S,18S,19E,21Z)-2,15,17-trihydroxy-11-methoxy-3,7,12,14,16,18,22-heptamethyl-32-{[4-(morpholin-4-ylmethyl)phenyl]methoxy}-6,23,37-trioxo-30-{4-[(pyridin-4-yl)carbonyl]piperazin-1-yl}-8,27,38-trioxa-24,34-diazahexacyclo[23.11.1.1^4,7.0^5,36.0^26,35.0^28,33]octatriaconta-1,3,5(36)9,19,21,25,28,30,32,34-undecaen-13-yl acetate], which “MIC90 LORA Rel to RMP” value [1] is on record?
**A.** The value was 4.7.

**Q.** What about the MIC90 [1, 3] of the same compound?
**A.** Its MIC90 is 0.235 µM.

**Q.** And the “MIC90 LORA/MABA” value [1]?
**A.** The value was 3.2.

**Q.** What about the “MBC99 Day 7 (Lux Assay) MBC Rel to RMP” value [2] of the same compound?
**A.** The value was 0.70.

**Q.** And the MBC [2, 4]?
**A.** Its MBC is 0.315 µM.

**Q.** Which “MIC90 LORA Rel to RMP” value [1] does the source give for `CO[C@H]1/C=C/O[C@@]2(C)Oc3c(C)c(O)c4c(=O)c(c5oc6cc(N7CCOC(CN(C)C)C7)cc(OCc7ccc(CN8CCOCC8)cc7)c6nc-5c4c3C2=O)NC(=O)/C(C)=C\C=C\[C@H](C)[C@H](O)[C@@H](C)[C@@H](O)[C@@H](C)[C@H](OC(C)=O)[C@@H]1C` (stereo partly drawn) [Compound 17o, (7S,9E,11S,12R,13S,14R,15R,16R,17S,18S,19E,21Z)-30-{2-[(dimethylamino)methyl]morpholin-4-yl}-2,15,17-trihydroxy-11-methoxy-3,7,12,14,16,18,22-heptamethyl-32-{[4-(morpholin-4-ylmethyl)phenyl]methoxy}-6,23,37-trioxo-8,27,38-trioxa-24,34-diazahexacyclo[23.11.1.1^4,7.0^5,36.0^26,35.0^28,33]octatriaconta-1,3,5(36)9,19,21,25,28,30,32,34-undecaen-13-yl acetate] here?
**A.** The value was 2.1.

**Q.** And the MIC90 [1, 3]?
**A.** The MIC90 was 0.106 µM.

**Q.** And the “MIC90 LORA/MABA” value [1]?
**A.** Its value is 19.

**Q.** And the “MBC99 Day 7 (Lux Assay) MBC Rel to RMP” value [2]?
**A.** The value was 0.28.

**Q.** What about the MBC [2, 4] of the same compound?
**A.** The MBC was 0.128 µM.

**Q.** Which results are given for `CO[C@H]1/C=C/O[C@@]2(C)Oc3c(C)c(O)c4c(=O)c(c5oc6cc(N7CCN(CC(C)C)CC7)cc(OCc7ccc(CN8CCN(C)CC8)cc7)c6nc-5c4c3C2=O)NC(=O)/C(C)=C\C=C\[C@H](C)[C@H](O)[C@@H](C)[C@@H](O)[C@@H](C)[C@H](OC(C)=O)[C@@H]1C` [Compound 17p, (7S,9E,11S,12R,13S,14R,15R,16R,17S,18S,19E,21Z)-2,15,17-trihydroxy-11-methoxy-3,7,12,14,16,18,22-heptamethyl-32-({4-[(4-methylpiperazin-1-yl)methyl]phenyl}methoxy)-30-[4-(2-methylpropyl)piperazin-1-yl]-6,23,37-trioxo-8,27,38-trioxa-24,34-diazahexacyclo-[23.11.1.1^4,7.0^5,36.0^26,35.0^28,33]octatriaconta-1,3,5(36)9,19,21,25,28,30,32,34-undecaen-13-yl acetate]?
**A.** MIC90 [1, 3]: 0.035 µM; MIC90 LORA/MABA [1]: 3.7; MBC99 Day 7 (Lux Assay) MBC Rel to RMP [2]: 0.20; MBC [2, 4]: 0.092 µM

**Q.** Which results are given for `CO[C@H]1/C=C/O[C@@]2(C)Oc3c(C)c(O)c4c(=O)c(c5oc6cc(N7CCC(C(=O)O)CC7)cc(OCc7ccc(CN8CCN(C)CC8)cc7)c6nc-5c4c3C2=O)NC(=O)/C(C)=C\C=C\[C@H](C)[C@H](O)[C@@H](C)[C@@H](O)[C@@H](C)[C@H](OC(C)=O)[C@@H]1C` [Compound 17q, 1-[(7S,9E,11S,12R,13S,14R,15R,16R,17S,18S,19E,21Z)-13-(acetyloxy)-2,15,17-trihydroxy-11-methoxy-3,7,12,14,16,18,22-heptamethyl-32-({4-[(4-methylpiperazin-1-yl)methyl]phenyl}methoxy)-6,23,37-trioxo-8,27,38-trioxa-24,34-diazahexacyclo-[23.11.1.1^4,7.0^5,36.0^26,35.0^28,33]-octatriaconta-1,3,5(36)9,19,21,25,28,30,32,34-undecaen-30-yl]piperidine-4-carboxylic acid]?
**A.** MIC90 [1, 3]: > 0.02 µM; MBC [2, 4]: > 0.1 µM

**Q.** Which results are given for `CO[C@H]1/C=C/O[C@@]2(C)Oc3c(C)c(O)c4c(=O)c(c5oc6cc(N7CCN(C(=O)c8ccc9occc9c8)CC7)cc(OCc7ccc(CN8CCOCC8)cc7)c6nc-5c4c3C2=O)NC(=O)/C(C)=C\C=C\[C@H](C)[C@H](O)[C@@H](C)[C@@H](O)[C@@H](C)[C@H](OC(C)=O)[C@@H]1C` [Compound 17s, (7S,9E,11S,12R,13S,14R,15R,16R,17S,18S,19E,21Z)-30-{4-[(1-benzofuran-5-yl)carbonyl]piperazin-1-yl}-2,15,17-trihydroxy-11-methoxy-3,7,12,14,16,18,22-heptamethyl-32-{[4-(morpholin-4-ylmethyl)phenyl]methoxy}-6,23,37-trioxo-8,27,38-trioxa-24,34-diazahexacyclo[23.11.1.1^4,7.0^5,36.0^26,35.0^28,33]octatriaconta-1,3,5(36)9,19,21,25,28,30,32,34-undecaen-13-yl acetate]?
**A.** MIC90 LORA Rel to RMP [1]: 0.60; MIC90 [1, 3]: 0.03 µM; MIC90 LORA/MABA [1]: 1.7; MBC99 Day 7 (Lux Assay) MBC Rel to RMP [2]: 0.19; MBC [2, 4]: 0.084 µM

**Q.** Which results are given for `CO[C@H]1/C=C/O[C@@]2(C)Oc3c(C)c(O)c4c(=O)c(c5oc6cc(N7CCN(C(=O)c8ccc(-c9ccc(C(N)=O)cc9)cc8)CC7)cc(OCc7ccc(CN8CCOCC8)cc7)c6nc-5c4c3C2=O)NC(=O)/C(C)=C\C=C\[C@H](C)[C@H](O)[C@@H](C)[C@@H](O)[C@@H](C)[C@H](OC(C)=O)[C@@H]1C` [Compound 17t, (7S,9E,11S,12R,13S,14R,15R,16R,17S,18S,19E,21Z)-30-(4-{[4-(4-carbamoylphenyl)-phenyl]carbonyl}piperazin-1-yl)-2,15,17-trihydroxy-11-methoxy-3,7,12,14,16,18,22-heptamethyl-32-{[4-(morpholin-4-ylmethyl)phenyl]methoxy}-6,23,37-trioxo-8,27,38-trioxa-24,34-diazahexacyclo[23.11.1.1^4,7.0^5,36.0^26,35.0^28,33]octatriaconta-1,3,5(36)9,19,21,25,28,30,32,34-undecaen-13-yl acetate]?
**A.** MIC90 LORA Rel to RMP [1]: 1.2; MIC90 [1]: 0.059 µM; MIC90 LORA/MABA [1]: 1.8; MBC99 Day 7 (Lux Assay) MBC Rel to RMP [2]: 0.12; MBC [2]: 0.086 µM

**Q.** How did the MIC90 [1, 3] turn out when `CO[C@H]1/C=C/O[C@@]2(C)Oc3c(C)c(O)c4c(=O)c(c5oc6cc(N7CCN(C(C)=O)CC7)cc(C)c6nc-5c4c3C2=O)NC(=O)/C(C)=C\C=C\[C@H](C)[C@H](O)[C@@H](C)[C@@H](O)[C@@H](C)[C@H](OC(C)=O)[C@@H]1C` [Compound 26d, (7S,9E,11S,12R,13S,14R,15R,16R,17S,18S,19E,21Z)-30-(4-Acetylpiperazin-1-yl)-2,15,17-trihydroxy-11-methoxy-3,7,12,14,16,18,22,32-octamethyl-6,23,37-trioxo-8,27,38-trioxa-24,34-diazahexacyclo[23.11.1.1^4,7.0^5,36.0^26,35.0^28,33]octatriaconta-1(36)2,4,9,19,21,25,28,30,32,34-undecaen-13-yl acetate] was run?
**A.** The MIC90 was greater than 0.02 µM.

**Q.** And the MBC [2, 4]?
**A.** Its MBC is greater than 0.1 µM.

**Q.** What does the source list for `CCC(=O)N1CCN(c2cc(C)c3nc4c5c6c7c(C)c(O)c5c(=O)c(c-4oc3c2)NC(=O)/C(C)=C\C=C\[C@H](C)[C@H](O)[C@@H](C)[C@@H](O)[C@@H](C)[C@H](OC(C)=O)[C@H](C)[C@@H](OC)/C=C/O[C@@](C)(O7)C6=O)CC1` [Compound 26e, (7S,9E,11S,12R,13S,14R,15R,16R,17S,18S,19E,21Z)-2,15,17-Trihydroxy-11-methoxy-3,7,12,14,16,18,22,32-octamethyl-6,23,37-trioxo-30-(4-propanoylpiperazin-1-yl)-8,27,38-trioxa-24,34-diazahexacyclo[23.11.1.1^4,7.0^5,36.0^26,35.0^28,33]octatriaconta-1(36)2,4,9,19,21,25,28,30,32,34-undecaen-13-yl acetate]?
**A.** MIC90 [1, 3]: > 0.02 µM; MBC99 Day 7 (Lux Assay) MBC Rel to RMP [2]: 0.19; MBC [2, 4]: 0.087 µM
